# Assay results as given in patent US20250145637A1, “SULFONAMIDE DERIVATIVE, PREPARATION METHOD THEREFOR AND MEDICAL USE THEREOF” (Jiangsu Hengrui Pharmaceuticals Co. Ltd., priority 2021, published 2025).
# System: H3K23 acetylation in U-2 OS cells
# Assay: U2OS cell H3K23 acetylation IF assay (immunofluorescence)
# Assay type: cell-based
# Conditions: Homo sapiens; for IC50: 24 h incubation, read-out: H3K23 ac/IC50; for Emax: inhibition of H3K23 acetylation, 24 h, read-out: Maximum inhibition rate/Imax %
# Description: Test Example 3: U2OS Cell H3K23 Acetylation IF Assay (Immunofluorescence)
# I. Reagents and Instruments
# • 1. U-2 OS (ATCC HTB-96) • 2. Recombinant anti-histone H3 (acetyl K23) antibody (Abcam, ab177275) • 3. Goat anti-rabbit IgG (H+L), Superclonal™ recombinant secondary antibody, Alexa Fluor 488 (Thermofisher, A27034) • 4. Hoechst 33342 (Sigma-Aldrich, B2261-25MG) • 5. Assay plate, 96-well, black with clear bottom (Corning, 3603) • 6. Bovine serum albumin (BSA) (Sangon Biotech, A500023-0100) • 7. Methanol (GENERAL-REAGENT, G75851D) • 8. Tween-20 (Sangon, A100777-0500) • 9. Triton X-100 (Solarbio, T8200) • 10. PBS (Shanghai BasalMedia Technologies Co., Ltd., B320KJ) • 11. 20×PBS buffer (Sangon Biotech, B548117-0500) • 12. McCoy's 5A medium (Gibco, 16600082) • 13. 0.25% trypsin-EDTA (1×) (Gibco, 25200-072) • 14. Pen strep (Gibco, 15140-122) • 15. DPBS (1×) (Gibco, 14190-144) • 16. FBS (Gibco, 10091148) • 17. Automatic cell counter (Countstar, IC1000) • 18. Thermostatic incubator (Thermo, 1160) • 19. ImageXpress® Micro Confocal (Molecular Device)
# a. Blocking buffer: PBS (Shanghai BasalMedia)+BSA (final concentration of 1%)+Triton X-100 (final concentration of 0.5%).
# b. Wash buffer: PBS (20×PBS was diluted to 1×PBS)+Tween-20 (final concentration of 0.1%).
# c. Primary antibody solution: Recombinant anti-histone H3 (acetyl K23) antibody was diluted in blocking buffer at a ratio of 1:1000.
# d. Secondary antibody solutions: Goat anti-rabbit IgG (H+L), Superclonal™ recombinant secondary antibody, Alexa Fluor 488 was diluted in blocking buffer at a ratio of 1:1000, and Hoechst 33342 was diluted in blocking buffer at a ratio of 1:5000.
# e. Compounds: initial concentration of 100 μM, 3-fold dilution, 9 gradient concentrations. All compound concentrations were diluted 500-fold with McCoy's 5A medium for later use.
# 2. Experimental Procedure
# 2.1. Cell Treatment (Day One)
# a. The state of U-2 OS cells was observed under a microscope to make sure that the cell confluence was about 90%.
# b. The cell supernatant was discarded. The cells were rinsed with DPBS once, and the DPBS was removed. The cells were digested with a proper amount of trypsin and left to stand at room temperature or 37° C. for 5 min.
# c. The digestion was stopped with an equal volume of medium containing 10% FBS, and the cell suspension was collected and centrifuged at 300 g for 3 min. The cells were suspended in a proper amount of fresh medium.
# d. The resulting cell suspension was collected and cell counting was performed.
# e. The cell suspension was diluted and plated at 9000 cells/50 μL/well.
# f. The wells on the periphery were blocked with 100 μL of PBS.
# g. The cell culture plates were incubated overnight in a 37° C., 5% carbon dioxide incubator.
# 2.2. Compound Addition (Day Two)
# a. 50 μL of diluted compound was added to the cell supernatant (50 μL/well) in each cell plate.
# b. After the addition, the cell plates were incubated in a 37° C., 5% carbon dioxide incubator for 24 h.
# 2.3. Immunofluorescence Staining and Measurement (Day Three to Day Four)
# a. After the 24-hour incubation, the cell plates were removed from the incubator. The medium was discarded, and plates were fixed with pre-cooled methanol at room temperature for 10 min.
# b. The fixation buffer was discarded, and the plates were quickly washed with wash buffer 3 times and then slowly washed 3 times (5 min/wash).
# c. The wash buffer was discarded, and blocking buffer was added. The plates were incubated at room temperature for 60 min.
# d. The blocking buffer was discarded, and the prepared primary antibody solution was added. The plates were incubated overnight at 4° C.
# e. The primary antibody solution was discarded, and the prepared secondary antibody solution was added. The plates were incubated at room temperature for 60 min.
# f. The secondary antibody solution was discarded, and the plates were quickly washed with wash buffer 3 times and then slowly washed 5 times (5 min/wash).
# g. The plates were tested on ImageXpress® Micro Confocal.
# h. […]
IC50 [nM],SMILES,Emax [%]
1.1,"COc1cccc(OC)c1S(=O)(=O)Nc1noc2cc(Cn3cccn3)c3c(c12)OCC3 [Compound 1, N-(4-((1H-pyrazol-1-yl)methyl)-2,3-dihydrobenzofuro[7,6-d]isoxazol-8-yl)-2,6-dimethoxybenzenesulfonamide]",102
0.4,"COc1cccc(OC)c1S(=O)(=O)Nc1noc2cc(Cn3cccn3)c3c(c12)OCCC3 [Compound 2, N-(5-((1H-pyrazol-1-yl)methyl)-3,4-dihydro-2H-chromeno[8,7-d]isoxazol-9-yl)-2,6-dimethoxybenzenesulfonamide]",98.5
0.9,"COc1ccccc1S(=O)(=O)Nc1noc2cc(Cn3cccn3)c3c(c12)OCCC3 [Compound 3, N-(5-((1H-pyrazol-1-yl)methyl)-3,4-dihydro-2H-chromeno[8,7-d]isoxazol-9-yl)-2-methoxybenzenesulfonamide]",106
0.6,"COc1cccc(OC)c1S(=O)(=O)Nc1noc2cc(Cn3cccn3)c3c(c12)OC(F)(F)O3 [Compound 5, N-(4-((1H-pyrazol-1-yl)methyl)-2,2-difluoro-[1,3]dioxolo[4′,5′:5,6]benzo[1,2-d]isoxazol-8-yl)-2,6-dimethoxybenzenesulfonamide]",104
1.4,"CCOc1cc(C)ccc1S(=O)(=O)Nc1noc2cc(Cn3cccn3)c3c(c12)OCCC3 [Compound 7, N-(5-((1H-pyrazol-1-yl)methyl)-3,4-dihydro-2H-chromeno[8,7-d]isoxazol-9-yl)-2-ethoxy-4-methylbenzenesulfonamide]",97.4
2.8,"Cc1ccc(S(=O)(=O)Nc2noc3cc(Cn4cccn4)c4c(c23)OCCC4)c(OCC(F)(F)F)c1 [Compound 8, N-(5-((1H-pyrazol-1-yl)methyl)-3,4-dihydro-2H-chromeno[8,7-d]isoxazol-9-yl)-4-methyl-2-(2,2,2-trifluoroethoxy)benzenesulfonamide]",99.4
0.75,"COc1ccc(F)cc1S(=O)(=O)Nc1noc2cc(Cn3cccn3)c3c(c12)OCCC3 [Compound 9, N-(5-((1H-pyrazol-1-yl)methyl)-3,4-dihydro-2H-chromeno[8,7-d]isoxazol-9-yl)-5-fluoro-2-methoxybenzenesulfonamide]",99.5
1.2,"COc1cccc(OC(F)(F)F)c1S(=O)(=O)Nc1noc2cc(Cn3cccn3)c3c(c12)OCCC3 [Compound 10, N-(5-((1H-pyrazol-1-yl)methyl)-3,4-dihydro-2H-chromeno[8,7-d]isoxazol-9-yl)-2-methoxy-6-(trifluoromethoxy)benzenesulfonamide]",106
4.6,"COc1ccccc1S(=O)(=O)Nc1noc2cc(Cn3cccn3)c3c(c12)OCC3 [Compound 20, N-(4-((1H-pyrazol-1-yl)methyl)-2,3-dihydrobenzofuro[7,6-d]isoxazol-8-yl)-2-methoxybenzenesulfonamide]",99.4
